Laboratory results reported in patent US9340559B2, “Proteasome inhibitor delanzomib for use in the treatment of lupus” (Cephalon, Inc., priority 2011, dated 2016).

Key:
Assay type in all cases: in vivo, mouse
[1] = system: MRL/lpr mice; assay: Urinalysis: total urine protein (proteinuria), MRL/lpr mice; details: G6: 1.5 mg/kg ip, 3× wk
Description: (§1) Urine samples are acid precipitated for total protein recovery and analysis. Samples for which enough urine remained are used for Uristix® leukouria analysis. Briefly, a standard protein solution is prepared from normal mouse sera and is used as a standard for mouse urinary protein assay by turbidity. Standard preparation is as follows: 0, 5, 10, 15, 20, 30, 40, and 50 μL of a 4 mg/mL mouse sera standard protein solution as provided in the kit are added in duplicate into two columns. PBS is added to individual wells to adjust the final volume to 50 μL. For urine sample preparation, urine samples are centrifuged at 9880×g for 3 minutes using a tabletop micro-centrifuge. Urine supernatant (1-50 μL) is added in duplicate. PBS is added to adjust the volume to 50 μL total. For the turbidity assay: 25 μL of 0.1 N HCl is added into blank columns and 250 μL of 3% sulfosalicyclic acid into the test columns. The microplate is incubated for 10 minutes at RT and plates are read using an ELISA reader with single beam at 450 nm. For the Uristix® strip assay, strips are laid out and labeled. Twenty microliters of urine are placed onto each test strip square and incubated for at least 30 seconds before the result is recorded. For all total urine analysis plate-based assays, values below the limit of detection set by the lowest point along the standard or set by the manufacturer are considered out of range and are not estimated, but assumed the lowest point along the standard curve for that particular assay.

[2] = system: MRL/lpr mice; assay: Urinalysis: urine leukocytes (leukouria), Uristix, MRL/lpr mice; details: G6: 1.5 mg/kg ip, 3× wk
Description: as §1

[3] = system: NZM mice; assay: Urinalysis: total urine protein (proteinuria), NZM mice (Example 2); details: G5 1.5 mg/kg ip, 3× wk
[4] = system: NZM mice; assay: Renal histopathology scoring (kidney IC-GN), NZM mice (Example 2)
Description: For histological analyses, the left kidney from each animal is removed and fixed in 10% buffered neutral formalin (EMD) for 48 hours on an orbital rocker at 25° C., then washed overnight with running dH2O and stored in 70% ethanol at 4° C. until ready to be processed. Kidney stains used for histological analyses included hematoxylin and eosin (H&E), Periodic Acid Schiff (PAS) and Trichrome stains (Wistar Institute, Philadelphia, Pa.). All 3 stained sections are used by the pathologist for scoring purposes. All histological scoring is performed blinded and by an independent board certified veterinary medical pathologist (Julie Engiles, VMD, DACVP). Multiple stains are used to determine score values. Images in FIG. 39 show worst affected area of section selected blindly by the pathologist.
Kidney IC-GN Scoring Method (Smith, Dong et al. 2007):
1. Glomerular cellularity—Score 1-5: Null, low, moderate, high, severe
2. Glomerular necrosis—Score 1-5: Null, low, moderate, high, severe
3. Glomerulosclerosis—Score 1-5: Null, low, moderate, high, severe
4. Interstitial infiltration—Score 1-5: Null, low, moderate, high, severe
5. Tubular atrophy—Score 1-5: Null, low, moderate, high, severe
6. Interstitial fibrosis—Score 1-5: Null, low, moderate, high, severe
7. Vasculitis—Score 1-5: Null, low, moderate, high, severe
Specific Pathologist Definitions: • Necrosis is defined by the presence of nuclear debris/pyknosis within the glomerular tuft indicative of “necrosis.” In many samples, this is a very mild, rare finding within only a very few segments of the glomerular tuft. Also consider effacement of the glomerular tuft by PAS positive, Trichrome negative material necrosis. • Glomerular sclerosis is defined by increased fibroplasia or fibrosis within the glomerular tuft or capsule. […] Most of the vascular changes are mild and could be considered “arteriosclerosis” characterized by proliferation of the smooth muscle cells, and hyalinization of the extracellular matrix. This change may reflect hypertension secondary to glomerular pathology. In very few animals is there overt “vasculitis.” Most inflammatory changes are within the walls of the blood vessels, with little to no damage to the endothelium, and no overt hemorrhage/fibrin leakage. Many also have perivascular rims of fibroblasts.

With C[C@@H]1C[C@H]2[C@@H]3CCC4=CC(=O)C=C[C@]4(C)[C@@]3(F)[C@@H](O)C[C@]2(C)[C@@]1(O)C(=O)CO [dexamethasone, Dexamethasone, reference compound] the “Urine AUC proteinuria, percent change vs vehicle” value [1] was −46%, the “Urine AUC leukocytes, percent change vs vehicle” value [2] was −100% and the “Urine proteinuria AUC, percent change vs vehicle” value [3] was 27%. The “Kidney glomerular cellularity, percent change vs vehicle” value ([4]; G5 1.5 mg/kg ip, 3× wk) was −38%, the “Kidney glomerular necrosis, percent change vs vehicle” value ([4]; G5 1.5 mg/kg ip, 3× wk) was −16% and the “Kidney glomerulosclerosis, percent change vs vehicle” value ([4]; G5 1.5 mg/kg ip, 3× wk) was −17%. For the same compound, the “Kidney interstitial fibrosis, percent change vs vehicle” value ([4]; G5 1.5 mg/kg ip, 3× wk) was −36%, the “Kidney interstitial infiltration, percent change vs vehicle” value ([4]; G5 1.5 mg/kg ip, 3× wk) was −36% and the “Kidney tubular atrophy, percent change vs vehicle” value ([4]; G5 1.5 mg/kg ip, 3× wk) was −25%. The “Kidney vasculitis, percent change vs vehicle” value ([4]; G5 1.5 mg/kg ip, 3× wk) was −40%, the “p, glomerular cellularity (GC) vs G8 NZW/LacJ non-diseased” value ([4]; G6 1.5 mg/kg 1× wk) was “p < 0.01” and the “p, glomerular necrosis (GN) vs G5 CTX 50 mg/kg 1× wk” value ([4]; G6 1.5 mg/kg 1× wk) was “p < 0.05”. The “p, glomerular necrosis (GN) vs G8 NZW/LacJ non-diseased” value ([4]; G6 1.5 mg/kg 1× wk) was “p < 0.01”, the “p, glomerular necrosis (GN) vs G9 NZM diseased baseline” value ([4]; G6 1.5 mg/kg 1× wk) was “p < 0.05” and the “p, glomerulosclerosis (GS) vs G4 Bortezomib 0.3 mg/kg 2× wk” value ([4]; G6 1.5 mg/kg 1× wk) was “p < 0.001”. The “p, glomerulosclerosis (GS) vs G5 CTX 50 mg/kg 1× wk” value ([4]; G6 1.5 mg/kg 1× wk) was “p < 0.05”, the “p, glomerulosclerosis (GS) vs G8 NZW/LacJ non-diseased” value ([4]; G6 1.5 mg/kg 1× wk) was “p < 0.001” and the “p, glomerulosclerosis (GS) vs G9 NZM diseased baseline” value ([4]; G6 1.5 mg/kg 1× wk) was “p < 0.05”. The “p, interstitial fibrosis (IF) vs G5 CTX 50 mg/kg 1× wk” value ([4]; G6 1.5 mg/kg 1× wk) was “p < 0.05”, the “p, interstitial fibrosis (IF) vs G8 NZW/LacJ non-diseased” value ([4]; G6 1.5 mg/kg 1× wk) was “p < 0.05” and the “p, interstitial infiltration (II) vs G4 Bortezomib 0.3 mg/kg 2× wk” value ([4]; G6 1.5 mg/kg 1× wk) was “p < 0.01”. The “p, interstitial infiltration (II) vs G5 CTX 50 mg/kg 1× wk” value ([4]; G6 1.5 mg/kg 1× wk) was “p < 0.05”, the “p, interstitial infiltration (II) vs G8 NZW/LacJ non-diseased” value ([4]; G6 1.5 mg/kg 1× wk) was “p < 0.05” and the “p, tubular atrophy (TA) vs G4 Bortezomib 0.3 mg/kg 2× wk” value ([4]; G6 1.5 mg/kg 1× wk) was “p < 0.01”. For the same compound, the “p, tubular atrophy (TA) vs G5 CTX 50 mg/kg 1× wk” value ([4]; G6 1.5 mg/kg 1× wk) was “p < 0.05” and the “p, tubular atrophy (TA) vs G8 NZW/LacJ non-diseased” value ([4]; G6 1.5 mg/kg 1× wk) was “p < 0.01”.
